These results are taken from ChEMBL document CHEMBL1141514, “QSAR studies on CCR2 antagonists with chiral sensitive hologram descriptors” (Bioorg Med Chem Lett, 2008).

Each structure is given as a SMILES string.

This assay deals with C-C chemokine receptor type 2 (Homo sapiens, UniProt P41597). Kind of assay: Antagonist activity at human CCR2b receptor. In kind it is functional.
Sequence of C-C chemokine receptor type 2 (P41597 whole entry): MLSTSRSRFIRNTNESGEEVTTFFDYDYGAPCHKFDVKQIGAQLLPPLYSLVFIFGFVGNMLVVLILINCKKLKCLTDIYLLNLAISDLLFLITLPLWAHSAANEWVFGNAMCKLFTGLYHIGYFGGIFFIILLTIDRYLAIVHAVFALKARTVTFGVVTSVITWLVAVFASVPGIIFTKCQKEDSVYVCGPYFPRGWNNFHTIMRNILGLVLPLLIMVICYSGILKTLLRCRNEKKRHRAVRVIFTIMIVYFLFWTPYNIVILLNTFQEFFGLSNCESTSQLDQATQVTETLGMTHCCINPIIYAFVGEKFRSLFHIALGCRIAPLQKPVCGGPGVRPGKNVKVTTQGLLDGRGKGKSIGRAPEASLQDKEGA

Usually IC50 stands for the concentration needed to halve the response being measured. Turning to `CC(CCN1CCC2(C=Cc3ccccc32)CC1)C(=O)NCc1cc(C(F)(F)F)cc(C(F)(F)F)c1` (configuration not stated), the IC50 (read-out: IC50) worked out at 231 nM. Same read-out and setting: the same measure for `CC(C)C[C@]1(C(=O)NCc2cc(F)cc(C(F)(F)F)c2)CC[C@@H](N2CC[C@]3(C=Cc4ccccc43)[C@@H](C)C2)C1`: 3.9 nM; for `CC(C)[C@]1(C(=O)NCc2cc(F)cc(C(F)(F)F)c2)CC[C@@H](N2CC[C@]3(C=Cc4ccccc43)[C@@H](C)C2)C1`: 3.1 nM. The same measure, in the same setting: for `O=C(NCc1cc(C(F)(F)F)cc(C(F)(F)F)c1)C(CCN1CCC2(C=Cc3ccccc32)CC1)C1CC1` (configuration not stated) the value was 98 nM; for `C[C@H]1CN(CCC(CC2CC2)C(=O)NCc2cc(C(F)(F)F)cc(C(F)(F)F)c2)CC[C@@]12C=Cc1ccccc12` (some centres not stated), 25 nM. `C=CCC(CCN1CCC(c2ccccc2)CC1)C(=O)NCc1cc(C(F)(F)F)cc(C(F)(F)F)c1` (configuration not stated): the IC50 (read-out: IC50) was 642 nM. The same measure, in the same setting: for `CC(C)C[C@]1(C(=O)NCc2cc(C(F)(F)F)cc(C(F)(F)F)c2)CC[C@@H](N2CC[C@]3(C=Cc4ccccc43)[C@@H](C)C2)C1` the value was 8 nM; for `CC(C)C(CCN1CCC2(C=Cc3ccccc32)CC1)C(=O)NCc1cc(C(F)(F)F)cc(C(F)(F)F)c1` (configuration not stated), 204 nM. The same measure, in the same setting: the same measure for `CS[C@]1(C(=O)NCc2cc(F)cc(C(F)(F)F)c2)CC[C@@H](N2CC[C@]3(C=Cc4ccccc43)[C@@H](C)C2)C1`: 67 nM; for `CCC[C@]1(C(=O)NCc2cc(C(F)(F)F)cc(C(F)(F)F)c2)CC[C@@H](N2CC[C@]3(C=Cc4ccccc43)[C@@H](C)C2)C1`: 16 nM. Still for that read-out and setting: for `O=C(NCc1cc(C(F)(F)F)cc(C(F)(F)F)c1)C(CCN1CCC(c2ccccc2)CC1)C1CC1` (configuration not stated) the value was 285 nM; for `C[C@H]1CN([C@@H]2CC[C@H](C(=O)NCc3cc(C(F)(F)F)cc(C(F)(F)F)c3)C2)CC[C@]12C=Cc1ccccc12`, 20 nM.

For `CCCC(CCN1CCC(c2ccccc2)CC1)C(=O)NCc1cc(C(F)(F)F)cc(C(F)(F)F)c1` (configuration not stated), the IC50 (read-out: IC50) was determined as 126 nM.

As to `C[C@H]1CN([C@@H]2CC[C@](C)(C(=O)NCc3cc(C(F)(F)F)cc(C(F)(F)F)c3)C2)CC[C@]12C=Cc1ccccc12`, under “read-out: IC50”, the IC50 was found to be 9 nM. As for `C[C@H]1CN([C@@H]2CC[C@](C)(C(=O)NCc3cc(F)cc(C(F)(F)F)c3)C2)CC[C@]12C=Cc1ccccc12`, the IC50 (read-out: IC50) worked out at 4 nM. Still for that read-out and setting: the same measure for `C=CCC(CCN1CCC2(C=Cc3ccccc32)CC1)C(=O)NCc1cc(C(F)(F)F)cc(C(F)(F)F)c1` (configuration not stated): 193 nM.

On to `Nc1nc([C@@H](CCN2CCC(c3ccccc3)CC2)C(=O)NCc2cc(C(F)(F)F)cc(C(F)(F)F)c2)cs1`, for which, where the note is “read-out: IC50”, the IC50 came to 229 nM.

As for `O=C(NCc1cc(C(F)(F)F)cc(C(F)(F)F)c1)[C@@H](NCCN1CCC(c2ccccc2)CC1)c1ccccc1`, where the note is “read-out: Log IC50 (converted)”, the IC50 is 832 nM. With `CC(C)[C@]1(C(=O)NCc2cc(C(F)(F)F)cc(C(F)(F)F)c2)CC[C@@H](N2CC[C@]3(C=Cc4ccccc43)[C@@H](C)C2)C1`, for the setting “read-out: IC50”, the IC50 amounted to 7.6 nM. The same measure, in the same setting: for `CSC[C@]1(C(=O)NCc2cc(F)cc(C(F)(F)F)c2)CC[C@@H](N2CC[C@]3(C=Cc4ccccc43)[C@@H](C)C2)C1` the value was 3.5 nM. For the molecule `O=C(NCc1cc(C(F)(F)F)cc(C(F)(F)F)c1)C(CCN1CCC(c2ccc(F)cc2)CC1)C1CC1` (configuration not stated), the IC50 (read-out: IC50) was 280 nM.

As for `C[C@H]1CN([C@@H]2CC[C@@](C(=O)NCc3cc(F)cc(C(F)(F)F)c3)(C3CC3)C2)CC[C@]12C=Cc1ccccc12`, the IC50 (read-out: IC50) stood at 1.9 nM. The same measure, in the same setting: the same measure for `C[C@H]1CN([C@@H]2CC[C@](CC3CCC3)(C(=O)NCc3cc(C(F)(F)F)cc(C(F)(F)F)c3)C2)CC[C@]12C=Cc1ccccc12`: 19 nM; for `C[C@H]1CN(CCC(C(=O)NCc2cc(C(F)(F)F)cc(C(F)(F)F)c2)C2CCC2)CC[C@@]12C=Cc1ccccc12` (some centres not stated): 28 nM. Still for that read-out and setting: the same measure for `C[C@H]1CN(CCC(C(=O)NCc2cc(C(F)(F)F)cc(C(F)(F)F)c2)C2CC2)CC[C@@]12C=Cc1ccccc12` (some centres not stated): 14 nM; for `CS[C@]1(C(=O)NCc2cc(C(F)(F)F)cc(C(F)(F)F)c2)CC[C@@H](N2CC[C@]3(C=Cc4ccccc43)[C@@H](C)C2)C1`: 28 nM. Regarding `CSC[C@]1(C(=O)NCc2cc(C(F)(F)F)cc(C(F)(F)F)c2)CC[C@@H](N2CC[C@]3(C=Cc4ccccc43)[C@@H](C)C2)C1`, the half-maximal inhibitory concentration (IC50) (read-out: IC50) came to 13 nM.
